According to patent publication US20250137054A1, “COMPOSITION AND METHOD FOR EVALUATING RESPONSIVENESS OF EDARAVONE” (MITSUBISHI TANABE PHARMA CORPORATION, priority 2022, published 2025):

What was measured:
[1] = system: disease model cells (neurons derived from the 1464R cell line forcibly expressing wild-type and mutant TDP-43); assay: RNA-seq gene expression analysis in disease model cells; assay type: cell-based, rat
Method: Using both vectors (a) and (b), the differentiated cell line in the infection medium was infected with adenovirus at a multiplicity of infection of 50, and cultured for 24 hours. As a result, neurons derived from the 1464R cell line, in which both wild-type and mutant TDP-43 were forcibly expressed intracellularly (hereinafter, also referred to as disease model cells), were obtained.
In the present evaluation, a 6-well plate treated with poly-L-lysine was used, cells were seeded at a density of 1×10^6 cells per well, cultured under the conditions of (1) of Example 1, and differentiated cells were used.
(3) Group 3 (TDP-43+EA exposed group; represented as ‘Group 3’ in FIG. 4 and FIGS. 7-11): After preparing the disease model cells expressing TDP-43, the cells were cultured in differentiation medium free of Eda but containing EA (final concentration 20 μmol/L) for 24 hours. This experimental group forcibly expresses TDP-43 and simulates conditions where the target has a neurodegenerative disease and remains untreated.
(4) Group 4 (TDP-43+EA+Eda exposed group; represented as ‘Group 4’ in FIG. 4 and FIGS. 7-11): After preparing the disease model cells expressing TDP-43, the cells were cultured in differentiation medium containing Eda (final concentration 50 μmol/L) but free of EA for 24 hours. After that, EA (final concentration 20 μmol/L) was further added, and the cells were further cultured for an additional 24 hours. This experimental group simulates conditions where the target with a neurodegenerative disease is administered or exposed to Eda.
After the culture was completed, cell pellets containing 1×10^6 or more cells were obtained from the experimental groups (1)-(4). Total RNA was extracted from these cell pellets using NucleoSpin RNA (manufactured by Macherey-Nagel) according to a product protocol.
Using the extracted total RNA (1.0 ng) as a template, double-stranded cDNA was synthesized using the SMART method using the SMART-Seq v4 Ultra (registered trademark) Low Input RNA Kit for Sequencing (manufactured by Clontech) according to a product protocol.
Next, using the NovaSeq6000 system (NovaSeq6000 S4 reagent kit, NovaSeq Xp4 lane kit, and NovaSeq control software (version 1.6.0); all manufactured by Illumina), sequences of the cDNA library were determined according to a product protocol.
Next, using the DRAGEN Bio-IT platform software (version 3.6.3, manufactured by Illumina) and referring to the rat genome assembly (version 6.0, top-level) and transcript annotation (release 101) obtained from the Ensembl database, types and abundance of genes were identified from the 150-base sequence information contained in the FASTQ files mentioned above.
An RNA expression level (TPM) of a transcription product i measured from the cDNA library of the experimental groups was calculated based on alignment to the rat genome and transcription product annotation from the Ensembl database, according to the following equation (A).
Differential expression analysis was performed using DESeq2 (a package for two-group comparison) in the statistical analysis software R (version 3.6.0) to calculate a log 2 ratio of RNA expression levels and a significance test. The log 2 ratio is a value expressed as “log 2 ([expression level of a first measurement target]/[expression level of a second measurement target]).”
The significance test was performed based on a p-value calculated by Wald test with multiple testing correction based on the Benjamini-Hochberg method (BH method).
In the present analysis, a gene with an absolute log 2 ratio of 1 or more (expression change ratio of 2.0 times or more or 0.50 times or less) and a p-value of 0.01 or less from the Wald test between any two groups was identified as a “gene with a change in expression level” (differentially expressed gene; DEG).
The X-axis represents a first principal component, and the Y-axis represents a second principal component, with their respective contribution rates expressed as percentages. […]

[2] = system: disease model cells, TDP-43 (+); assay: Evaluation of cell protection using chromogenic substrate (2), without EA; assay type: cell-based, rat; details: Eda 50 or 100 μmol/L 96 h, no EA; vs Comparative Example 2 (FIG. 12)
Text: Using the differentiated cell line prepared using the method of Example 1 (indicated as “TDP-43 (−)” in FIG. 12), an Eda-unexposed group (Reference Example 2) and a 96-hour Eda-exposed group (final concentration 100 μmol/L) (Reference Example 3) were each prepared.
Further, using the disease model cells prepared using the method of Example 1 (indicated as “TDP-43 (+)” in FIG. 12), an Eda-unexposed group (Comparative Example 2) and 96-hour Eda-exposed groups (final concentration 50 or 100 μmol/L) (Examples 5-1 and 5-2) were each prepared.
All of these were performed without containing EA.
After that, similar to Example 3-1 and the like, a cell toxicity measurement kit was used to expose the cells in each group according to a product protocol, and an amount of chromogenic substrate produced was measured by absorbance at 450 nm.
The data shown in FIG. 12 are all expressed as mean±standard error of the mean (SEM, n=4 for each). In FIG. 12, the symbol “##” indicates a statistically significant difference of p<0.01 compared to Comparative Example 2. In FIG. 12, the symbol “**” indicates a statistically significant difference of p<0.05 compared to Comparative Example 2. In FIG. 12, the symbol “$” indicates a statistically significant difference of p<0.05 compared to Reference Example 2 (all determined by Student t-test).

[3] = Group 3 (TDP43 + EA) vs Group 2 (Eda)
[4] = Group 4 (TDP43 + EA + Eda) vs Group 1 (control)
[5] = Group 4 (TDP43 + EA + Eda) vs Group 2 (Eda)
[6] = Group 4 (TDP43 + EA + Eda) vs Group 3 (TDP43 + EA)
[7] = Group 4 (TDP43+EA+Eda 50 μmol/L) vs Group 3 (TDP43+EA), RNA expression
[8] = in the presence of edaravone, TDP-43 mutant protein present

For CC1=NN(c2ccccc2)C(=O)C1 [edaravone, 5-methyl-2-phenyl-2,4-dihydro-3H-pyrazol-3-one], the “number of downregulated genes (DEGs)” value [1, 3] was 478, the “number of upregulated genes (DEGs)” value [1, 3] was 876 and the “number of downregulated genes (DEGs)” value [1, 4] was 1,095. For the same molecule, the “number of upregulated genes (DEGs)” value [1, 4] was 1,654, the “number of downregulated genes (DEGs)” value [1, 5] was 1,130 and the “number of upregulated genes (DEGs)” value [1, 5] was 1,661. For the same molecule, the “number of downregulated genes (DEGs)” value [1, 6] was 260, the “number of upregulated genes (DEGs)” value [1, 6] was 169 and the “gene expression profile (principal component analysis of RNA-seq data)” value ([1]; Group 4 (TDP43 + EA + Eda) vs Group 3 (TDP43 + EA), FIG. 6) was “distinctly different gene expression profiles”. For the same molecule, the “Group 4 to Group 3 log2 ratio: Acsl6 (acyl-CoA synthetase long-chain family member 6)” value [1, 7] was −1.582, the “Group 4 to Group 3 log2 ratio: Cebpb (CCAAT/enhancer binding protein beta)” value [1, 7] was 1.661 and the “Group 4 to Group 3 log2 ratio: Glrx (glutaredoxin)” value [1, 7] was −1.262. For the same molecule, the “Group 4 to Group 3 log2 ratio: Ho-1 (hemeoxygenase 1)” value [1, 7] was 1.755, the “Group 4 to Group 3 log2 ratio: HspaS (heat shock protein family A (Hsp70) member 8)” value [1, 7] was 1.151 and the “Group 4 to Group 3 log2 ratio: Hsph1 (heat shock protein family H (Hsp110) member 1)” value [1, 7] was 1.027. The “Group 4 to Group 3 log2 ratio: Mt1 (metallothionein 1)” value [1, 7] was −1.392, the “Group 4 to Group 3 log2 ratio: Nefl (neurofilament light)” value [1, 7] was −1.778 and the “Group 4 to Group 3 log2 ratio: Nfe2l2 (nuclear factor, erythroid 2-like 2)” value [1, 7] was 0.923. The “Group 4 to Group 3 log2 ratio: Nup43 (nucleoporin 43)” value [1, 7] was −0.888, the “Group 4 to Group 3 log2 ratio: Pik3cb” value [1, 7] was 1.157 and the “Group 4 to Group 3 log2 ratio: Plcg2 (phospholipase C, gamma 2)” value [1, 7] was 0.881. The “Group 4 to Group 3 log2 ratio: Plpp3 (phospholipid phosphatase 3)” value [1, 7] was 1.307, the “Group 4 to Group 3 log2 ratio: Ptgds (prostaglandin D2 synthase)” value [1, 7] was 0.954 and the “Group 4 to Group 3 log2 ratio: Sqstm1 (sequestosome 1)” value [1, 7] was 1.225. For the same molecule, the “Group 4 to Group 3 log2 ratio: Txndc2 (thioredoxin domain containing 2)” value [1, 7] was 1.153, the “log 2 ratio Group 4/Group 3: Alpl (ALPL)” value ([1]; Group 4 (TDP43+EA+Eda 50 μmol/L) vs Group 3 (TDP43+EA), RNA expression, DESeq2) was −1.098 and the “expression level of a gene product of ALPL” value [1, 8] was “decreases”. For the same molecule, the “expression level of a gene product of ASF1B” value [1, 8] was “decreases”, the “expression level of a gene product of DCTD” value [1, 8] was “decreases” and the “expression level of a gene product of FAIM2” value [1, 8] was “increases”. For the same molecule, the “expression level of a gene product of FCSK” value [1, 8] was “decreases”, the “expression level of a gene product of HAUS4” value [1, 8] was “decreases” and the “expression level of a gene product of ITGB4” value [1, 8] was “decreases”. The “expression level of a gene product of KAZALD1” value [1, 8] was “decreases”, the “expression level of a gene product of MAST1” value [1, 8] was “decreases” and the “expression level of a gene product of MT2A” value [1, 8] was “decreases”. For the same molecule, the “expression level of a gene product of NTM” value [1, 8] was “decreases”, the “expression level of a gene product of PTTG1” value [1, 8] was “decreases” and the “expression level of a gene product of SBK1” value [1, 8] was “decreases”. The “expression level of a gene product of SCN2A” value [1, 8] was “decreases”, the “expression level of a gene product of UBE2L6” value [1, 8] was “decreases” and the “number of viable cells (absorbance at 450 nm)” value [2] was “higher number of viable cells”.
